Source: BindingDB's records for patent US20250059156 (Sensorium Therapeutics, 2025)

Target: Sodium-dependent serotonin transporter (Homo sapiens, UniProt P31645)
Assay: SERT Inhibition Assay
Method: SERT inhibition was measured using a Neruotransmitter Transportation Fluorescence assay. […] Compounds were prepared by in assay buffer (20 mM HEPES, 0.1% BSA). The compounds were added to the plated cells and incubated for 30 minutes at 37° C. 25 μL of dye solution (Molecular Devices Neurotransmitter Transporter Uptake Assay Kit) was added per well and incubated for 30 minutes at 37° C. The plates were then read on a plate reader.

Sequence of Sodium-dependent serotonin transporter (P31645 whole entry): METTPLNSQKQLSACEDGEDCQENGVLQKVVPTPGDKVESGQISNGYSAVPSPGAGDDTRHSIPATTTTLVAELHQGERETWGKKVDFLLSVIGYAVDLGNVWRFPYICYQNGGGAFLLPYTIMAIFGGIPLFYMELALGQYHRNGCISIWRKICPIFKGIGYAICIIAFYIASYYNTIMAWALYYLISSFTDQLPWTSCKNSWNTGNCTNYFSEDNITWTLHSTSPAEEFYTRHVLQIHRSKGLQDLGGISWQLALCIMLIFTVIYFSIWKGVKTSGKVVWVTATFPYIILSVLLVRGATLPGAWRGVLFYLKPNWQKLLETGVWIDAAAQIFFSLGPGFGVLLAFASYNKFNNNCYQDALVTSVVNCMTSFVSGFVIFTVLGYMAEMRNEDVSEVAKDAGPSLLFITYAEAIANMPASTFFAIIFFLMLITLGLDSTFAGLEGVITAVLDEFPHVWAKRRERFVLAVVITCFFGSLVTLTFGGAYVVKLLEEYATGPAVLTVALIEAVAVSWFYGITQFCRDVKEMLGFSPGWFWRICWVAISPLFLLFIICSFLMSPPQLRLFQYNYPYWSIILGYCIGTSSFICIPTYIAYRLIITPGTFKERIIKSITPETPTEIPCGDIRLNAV

SMILES: COc1ccc([C@]23CCN(C)[C@H]2[C@H]2CCC[C@@H]3CC2=O)cc1OC [US20250059156, Compound 220]
- IC50: 0.1 to 0.5 µM

SMILES: COc1ccc([C@@]23CCN(C)[C@@H]2[C@@H]2CCC[C@H]3CC2=O)cc1OC [US20250059156, Compound 221]
- IC50: < 0.05 µM
